In one assay the test system is human Pan T cells. The assay can be described thus: Human Pan T cell IL-2 ELISA. The class given is cell-based. To be noted: Homo sapiens, T-cell, 48 h, Anti-CD3 and Anti-CD28, supernatant IL-2 ELISA, read-out: IL-2 release, EC50. The essentials:
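Human Pan T cells (1×10^6 cells/ml) stimulated with plate-bound anti-CD3 plus anti-CD28 and treated 48 h with compound at 9 final concentrations, 39.063–10000 nM. Supernatant IL-2 by ELISA, expressed as fold over DMSO wells; EC50 from four-parameter logistic fit.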
For orientation: ELISA stands for enzyme-linked immunosorbent assay.

For a further assay, the system named is Phospho-SLP-76 (Ser376). The assay can be described thus: Phospho-SLP-76 (Ser376) HTRF assay in Jurkat E6-1 cells. Conditions: Homo sapiens, compound 4 hours, then anti-CD3 antibody 20 minutes, read-out: pSLP76, IC50. The class given is cell-based. How it is done:
A compound was dissolved in DMSO to 10 mM, and then diluted three-fold with DMSO to 10 dosages in a 96-well plate. Then, 3 µL of the diluted compound sample was transferred to a 96-well plate with 97 µL of cell culture medium, and the plate was shaken for 5 minutes. According to the experimental design diagram, 7.5 µL of the diluted compound sample was transferred to a cell plate. Final concentrations of the compound in this assay were 10000.00, 3333.33, 1111.11, 370.37, 123.46, 41.15, 13.72, 4.57, 1.52 and 0.51 nM.
In this assay, the density of Jurkat E6-1 cells was maintained between 3*10^5 to 3*10^6 cells/mL. The cell culture was replaced with fresh culture medium every 2 to 3 days (depending on the cell density).
30 µL of Jurkat E6-1 (300,000 cells) was added to a 96-well plate and incubated in a 37 °C incubator for 1 hour. Then, according to the experimental design diagram, compounds (6×, 7.5 µL) were added to treat the cells for 4 hours, respectively. After 4 hours, purified anti-human anti-CD3 antibodies (6×, 7.5 µL) were added to treat the cells for 20 minutes. After 20 minutes, 15 µL of cell lysis buffer (4×) was added, and the cells were lysed at 25 °C with shaking (250 rpm) for 1 hour. Then, according to the experimental design diagram, 16 µL of cell lysate was transferred to a 384-well plate using a pipette. After the transfer, 4 µL of antibody detection mixture was added. After being placed at room temperature overnight, the plate was read by EnVision multi-function microplate reader to read the FRET signal (the ratio of HTRF 665/615 was calculated from the readings at 665 nm and 615 nm).
The ratio of the signal at 665 nm to the signal at 615 nm was converted to the percentage of inhibition. Inhibition % = (maximum value - sample value) / (maximum value - minimum value)×100. The minimum value refers to the signal value of a well without anti-CD3 antibody stimulation during the treatment of cells, and the maximum value refers to the signal value of a well with anti-CD3 antibody stimulation but without the compound during the treatment of cells. IC50 values were calculated by XLFit (version 5.3.1.3) in excel. Equation: Y = Bottom + (Top-Bottom) / (1 + (IC50/X) ^ HillSlope). Table 4. Results of cellular activity of the compounds
On the technique in general: Time-resolved FRET reads energy transfer from a long-lived donor to a nearby acceptor.

The target of a further assay is HPK1 (Homo sapiens, UniProt Q92918). The experiment in a line: HPK1 ADP-Glo kinase assay. It counts as biochemical. Conditions: 40 µM ATP; 5 nM HPK1; MBP protein substrate. The protocol:
1×kinase buffer (40 mM Tris-HCl (pH 7.5), 20 mM MgCl2, 0.1 mg/ml BSA, 0.05 mM DTT), 2 µM MBP protein and 40 µM ATP, […] were included in the reaction mixture. The reaction was initiated by adding 5 nM HPK1. After 60 minutes of reaction, the assay was terminated by adding 5 µL of ADP-Glo™ reagent. After 60 minutes, 10 µL of kinase assay reagent was added. After being incubated at room temperature for 60 minutes, the assay plate was read by EnVision multi-function microplate reader.
The luminescent signal value was converted to the percentage of inhibition. Inhibition % = (maximum value - sample value) / (maximum value - minimum value)×100. The minimum value refers to the value measured in a well without enzyme but with DMSO and substrate, and the maximum value refers to the value measured in a well with DMSO, enzyme and substrate. IC50 values were calculated by XLFit (version 5.3.1.3) in Excel. Equation: Y = bottom + (top - bottom) / (1 + (IC50/X) ^ HillSlope).

Chain of HPK1 (Q92918 whole entry, species assumed): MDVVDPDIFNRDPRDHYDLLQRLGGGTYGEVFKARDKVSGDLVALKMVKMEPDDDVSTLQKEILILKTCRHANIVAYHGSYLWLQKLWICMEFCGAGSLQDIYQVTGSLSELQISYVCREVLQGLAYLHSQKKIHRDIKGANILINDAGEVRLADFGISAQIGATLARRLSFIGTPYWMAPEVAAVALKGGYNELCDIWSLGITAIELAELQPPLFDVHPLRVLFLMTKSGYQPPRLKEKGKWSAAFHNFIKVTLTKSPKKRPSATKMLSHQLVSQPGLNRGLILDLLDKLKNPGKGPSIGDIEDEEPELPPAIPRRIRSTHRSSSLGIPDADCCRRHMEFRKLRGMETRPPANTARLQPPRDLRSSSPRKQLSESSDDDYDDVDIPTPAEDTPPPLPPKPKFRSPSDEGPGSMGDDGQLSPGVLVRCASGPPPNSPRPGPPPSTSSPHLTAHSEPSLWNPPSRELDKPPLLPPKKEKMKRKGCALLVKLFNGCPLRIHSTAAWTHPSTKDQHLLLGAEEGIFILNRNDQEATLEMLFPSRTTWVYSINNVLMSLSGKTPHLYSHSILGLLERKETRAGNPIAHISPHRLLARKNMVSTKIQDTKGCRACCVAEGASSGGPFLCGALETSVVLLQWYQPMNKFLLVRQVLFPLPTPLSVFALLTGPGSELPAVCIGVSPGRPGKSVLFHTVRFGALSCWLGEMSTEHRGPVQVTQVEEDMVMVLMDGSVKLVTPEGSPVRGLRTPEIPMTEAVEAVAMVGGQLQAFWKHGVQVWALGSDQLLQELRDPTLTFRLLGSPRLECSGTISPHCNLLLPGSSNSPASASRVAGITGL

With `COc1cccn2c(-c3cc4c(c5c(=O)[nH]ccc35)Nc3ccc(N5CCOCC5)cc3C4(C)C)cnc12` [Example 3], the EC50 (as a rule, the concentration that produces a half-maximal response) with human Pan T cells was found to be 0.038 µM. Also, the concentration for half-maximal inhibition (IC50) (usually the concentration at which inhibition is half-maximal) in the assay with Phospho-SLP-76 (Ser376) is 0.0575 µM; on HPK1 it was 0.0003 µM.
On to `Cc1ccn2c(-c3cc4c(c5c(=O)[nH]ccc35)Nc3ccc(N5CCOCC5)cc3C4(C)C)cnc2c1F` [Example 5], for which the EC50 in the assay on human Pan T cells was 0.0108 µM. In addition, the IC50 on HPK1 was 0.00344 µM.
For the compound `COc1cccn2c(-c3cc4c(c5c(=O)[nH]ccc35)Nc3ccc(N5CCOC(C(C)(C)O)C5)cc3C4(C)C)cnc12` (stereo not drawn) [Example 2], the IC50 with Phospho-SLP-76 (Ser376) came out at 0.064 µM; at HPK1, 0.0017 µM.
For `CC1(C)c2cc(N3CCOCC3)ccc2Nc2c1cc(-c1cnc3c(Cl)cccn13)c1cc[nH]c(=O)c21` [Example 1], the IC50 in the assay on Phospho-SLP-76 (Ser376) is 0.121 µM; against HPK1, 0.0001 µM.

(Values after patent EP4567031A1, “HPK1 INHIBITOR, PREPARATION METHOD THEREFOR, AND USE THEREOF” (Beijing Earthwise Technology Co., Ltd., priority 2022, dated 2024).)
